Residues, ends and D or L forms follow the SMILES beside them.
Tests used:
Scrib PDZ-1 domain = target: T1, Scrib PDZ-1 domain (Homo sapiens, UniProt Q14160); experiment: In-solution fluorescence polarization binding of peptides to Scrib PDZ1; details: Kd value of 100 µM applied as binding cutoff, NB without definition, read-out: Kd (µM) PDZ1
T1 construct: ROC curves of DomPep prediction for the three Scrib PDZ-1/2/3 domains

Scrib PDZ-2 domain = target: T2, Scrib PDZ-2 domain (Homo sapiens, UniProt Q14160); experiment: In-solution fluorescence polarization binding of peptides to Scrib PDZ2; details: Kd value of 100 µM applied as binding cutoff, NB without definition, read-out: Kd (µM) PDZ2
T2 construct: ROC curves of DomPep prediction for the three Scrib PDZ-1/2/3 domains
T2 sequence (Q14160 862-950 limits assumed): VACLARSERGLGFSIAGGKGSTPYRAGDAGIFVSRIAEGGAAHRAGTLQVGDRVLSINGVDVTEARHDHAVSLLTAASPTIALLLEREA

Scrib PDZ-3 domain = target: T3, Scrib PDZ-3 domain (Homo sapiens, UniProt Q14160); experiment: In-solution fluorescence polarization binding of peptides to Scrib PDZ3; details: Kd value of 100 µM applied as binding cutoff, NB without definition
T3 construct: ROC curves of DomPep prediction for the three Scrib PDZ-1/2/3 domains
T3 sequence (Q14160 1004-1093 limits assumed): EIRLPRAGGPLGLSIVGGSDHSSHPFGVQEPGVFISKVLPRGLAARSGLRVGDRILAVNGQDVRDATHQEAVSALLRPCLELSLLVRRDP
Source text: Because DomPep compared favorably to MDSM in identifying ligands for a PDZ domain included in the training set and to SPSSM in identifying binding peptides for an untrained PDZ domain, we next tested it whether it could reliably PPIs mediated by a PDZ domain on the genome scale. To this end, we employed three DomPep models to predict interactions between the Scrib PDZ domains and human proteins from the Swiss-Prot protein database. The three prediction models, which were generated for the mouse Scrib PDZ-1, PDZ-2 and PDZ-3 domains, were trained with 6, 5 and 30 positive peptide, respectively (Table S1). Searching the protein database with these models yielded a list of potential PDZ ligands. […] This experiment identified 14, 14, and 38 positives for the PDZ-1, -2, and -3 domains, respectively (Table 1). […] Importantly, we identified four peptides that were not included in the training set as physiological binders to the Scrib PDZ domains. The corresponding proteins, namely APC, LPP, VANGL2 and ZO2, were previously reported to interact with Scrib in vivo via its PDZ domains, [36], [37], [38], [39].
Figure 4 Application of DomPep to the prediction of PDZ-binding ligands. ROC curves of DomPep prediction for the three Scrib PDZ-1/2/3 domains using 56 peptides selected from the human protein database as the test set. The respective affinities of the three domains for the 56 peptides were measured by fluorescence polarization (Table 1).

T1 sequence (Q14160 728-815 limits assumed): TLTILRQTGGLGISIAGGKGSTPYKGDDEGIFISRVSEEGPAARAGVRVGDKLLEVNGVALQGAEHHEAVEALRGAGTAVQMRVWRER

SMILES	Kd (Scrib PDZ-1 domain) [µM]	Kd (Scrib PDZ-2 domain) [µM]	Kd (Scrib PDZ-3 domain) [µM]
CC(C)[C@H](NC(=O)[C@H](CO)NC(=O)[C@H](CCCCN)NC(=O)[C@H](CCCCN)NC(=O)[C@H](CO)NC(=O)[C@H](CCCCN)NC(=O)[C@H](CCCCN)NC(=O)[C@H](CCCCN)NC(=O)[C@H](CCC(=O)O)NC(=O)[C@H](C)N)C(=O)O [PSMA8] (H-AEKKKSKKSV-OH)	> 100	> 100	177
CC(C)C[C@H](NC(=O)[C@H](CCC(=O)O)NC(=O)[C@H](CCCNC(=N)N)NC(=O)[C@H](Cc1c[nH]c2ccccc12)NC(=O)[C@@H]1CCCN1C(=O)[C@@H]1CCCN1C(=O)[C@H](CC(=O)O)NC(=O)CNC(=O)[C@H](CCCNC(=N)N)NC(=O)[C@@H]1CCCN1)C(=O)O [C19orf57] (H-PRGDPPWREL-OH; N-terminus and C-terminus assumed)	> 100	> 100	> 100
CC[C@H](C)[C@H](NC(=O)[C@@H]1CCCN1C(=O)[C@@H](NC(=O)CNC(=O)[C@@H](NC(=O)[C@@H](NC(=O)[C@H](CC(N)=O)NC(=O)[C@@H](NC(=O)[C@H](CCC(N)=O)NC(=O)[C@@H](N)CC(=O)O)C(C)C)[C@@H](C)O)C(C)C)[C@@H](C)CC)C(=O)O [EPHA2] (H-DQVNTVGIPI-OH; N-terminus and C-terminus assumed)	> 100	> 100	> 100
CC(C)C[C@H](NC(=O)[C@H](CCCCN)NC(=O)[C@H](CO)NC(=O)[C@H](CC(N)=O)NC(=O)[C@@H](NC(=O)[C@H](CO)NC(=O)[C@H](Cc1c[nH]cn1)NC(=O)[C@@H]1CCCN1C(=O)[C@H](CC(C)C)NC(=O)[C@@H](N)CCC(=O)O)C(C)C)C(=O)O [ZADH2] (H-ELPHSVNSKL-OH; N-terminus and C-terminus assumed)	> 100	> 100	> 100
CC[C@H](C)[C@H](NC(=O)[C@@H](NC(=O)[C@H](Cc1ccccc1)NC(=O)[C@H](CCC(=O)O)NC(=O)[C@@H]1CCCN1C(=O)[C@H](CC(N)=O)NC(=O)[C@@H](NC(=O)[C@@H](N)Cc1ccc(O)cc1)[C@@H](C)O)C(C)C)C(=O)N[C@@H](CC(N)=O)C(=O)N[C@H](C(=O)O)C(C)C [PRKCB1] (H-YTNPEFVINV-OH; N-terminus and C-terminus assumed)	> 100	> 100	> 100
CC[C@H](C)[C@H](NC(=O)CNC(=O)[C@@H](NC(=O)CNC(=O)[C@H](Cc1c[nH]cn1)NC(=O)[C@H](CC(C)C)NC(=O)[C@H](Cc1c[nH]cn1)NC(=O)[C@@H](N)CC(C)C)[C@@H](C)O)C(=O)N[C@@H](CCC(N)=O)C(=O)N[C@H](C(=O)O)C(C)C [EPHA7] (H-LHLHGTGIQV-OH; N-terminus and C-terminus assumed)	> 100	> 100	> 100
CC(C)C[C@H](NC(=O)[C@H](CCC(=O)O)NC(=O)[C@H](CCC(=O)O)NC(=O)[C@H](CCCNC(=N)N)NC(=O)[C@@H](NC(=O)[C@H](C)NC(=O)[C@H](CO)NC(=O)[C@@H](NC(=O)[C@H](CCCCN)NC(=O)[C@@H](N)CCC(=O)O)C(C)C)[C@@H](C)O)C(=O)O (H-EKVSATREEL-OH)	> 100	> 100	88.1
CC[C@H](C)[C@H](NC(=O)[C@H](C)NC(=O)[C@H](CO)NC(=O)[C@H](CC(C)C)NC(=O)[C@H](CC(C)C)NC(=O)[C@@H](N)CCC(=O)O)C(=O)N[C@@H](CCC(=O)O)C(=O)N[C@@H](CCCCN)C(=O)N[C@@H](CC(C)C)C(=O)N[C@@H](CC(C)C)C(=O)O [UBXD1] (H-ELLSAIEKLL-OH; N-terminus and C-terminus assumed)	> 100	> 100	> 100
CC(C)[C@H](NC(=O)[C@H](CO)NC(=O)[C@@H](NC(=O)[C@@H](NC(=O)CNC(=O)[C@H](CCC(=O)O)NC(=O)[C@H](C)NC(=O)[C@H](CCCNC(=N)N)NC(=O)[C@H](CCC(=O)O)NC(=O)[C@@H](N)CS)[C@@H](C)O)C(C)C)C(=O)O [MUSK] (H-CERAEGTVSV-OH)	> 100	> 100	143
CC[C@H](C)[C@H](NC(=O)[C@@H](N)CC(N)=O)C(=O)NCC(=O)N[C@@H](CO)C(=O)N[C@@H](CCC(N)=O)C(=O)NCC(=O)N[C@@H](CO)C(=O)N[C@H](C(=O)N[C@@H](CC(=O)O)C(=O)N[C@@H](Cc1ccc(O)cc1)C(=O)O)[C@@H](C)O [TRIM21] (H-NIGSQGSTDY-OH)	> 100	> 100	116
CC(C)C[C@H](NC(=O)[C@H](CS)NC(=O)[C@H](CC(=O)O)NC(=O)[C@@H](NC(=O)[C@H](CC(N)=O)NC(=O)[C@H](CCCNC(=N)N)NC(=O)[C@H](CC(C)C)NC(=O)CNC(=O)CNC(=O)[C@@H](N)CC(=O)O)C(C)C)C(=O)O [TBK1] (H-DGGLRNVDCL-OH)	77	> 100	67.8
CC(C)[C@H](NC(=O)[C@@H]1CCCN1C(=O)[C@@H](NC(=O)[C@@H]1CCCN1C(=O)CNC(=O)[C@H](CC(N)=O)NC(=O)[C@H](CCCCN)NC(=O)[C@H](CO)NC(=O)[C@H](CCC(N)=O)NC(=O)[C@@H](N)[C@@H](C)O)C(C)C)C(=O)O [EPHA3] (H-TQSKNGPVPV-OH)	129	> 100	> 100
CSCC[C@H](NC(=O)[C@H](Cc1ccccc1)NC(=O)[C@H](C)NC(=O)[C@@H](N)Cc1c[nH]c2ccccc12)C(=O)N[C@@H](CCCNC(=N)N)C(=O)N[C@@H](Cc1ccc(O)cc1)C(=O)N[C@@H](CCCNC(=N)N)C(=O)N[C@@H](CCC(N)=O)C(=O)N[C@@H](CCC(N)=O)C(=O)N[C@@H](CC(C)C)C(=O)O [SYNJ2BP] (H-WAFMRYRQQL-OH)	> 100	> 100	–
CC(C)[C@H](NC(=O)[C@H](CO)NC(=O)[C@@H](NC(=O)[C@@H](NC(=O)[C@@H](NC(=O)[C@H](CCCNC(=N)N)NC(=O)[C@@H](NC(=O)[C@H](CCCCN)NC(=O)[C@H](C)NC(=O)[C@@H](N)CO)C(C)C)[C@@H](C)O)C(C)C)[C@@H](C)O)C(=O)O [RASL11B] (H-SAKVRTVTSV-OH)	> 100	> 100	–
CC(C)C[C@H](NC(=O)[C@@H](NC(=O)[C@H](CC(N)=O)NC(=O)[C@@H](N)CCCNC(=N)N)[C@@H](C)O)C(=O)N[C@@H](Cc1ccc(O)cc1)C(=O)N[C@@H](Cc1ccccc1)C(=O)N[C@@H](CO)C(=O)N[C@H](C(=O)N[C@@H](CC(=O)O)C(=O)N[C@H](C(=O)O)C(C)C)[C@@H](C)O [ABR] (H-RNTLYFSTDV-OH)	12.5	10.4	–
CC(C)C[C@H](NC(=O)[C@H](CO)NC(=O)[C@@H](NC(=O)[C@@H](NC(=O)[C@@H](NC(=O)[C@H](Cc1ccccc1)NC(=O)[C@@H](NC(=O)[C@H](CC(=O)O)NC(=O)[C@H](CCC(=O)O)NC(=O)[C@@H]1CCCN1)[C@@H](C)O)[C@@H](C)O)C(C)C)[C@@H](C)O)C(=O)O [AHDC1] (H-PEDTFTVTSL-OH)	19.2	> 100	–
CC[C@H](C)[C@H](N)C(=O)N[C@@H](CC(C)C)C(=O)N[C@@H](CCCNC(=N)N)C(=O)N[C@@H](CCCCN)C(=O)N[C@@H](CO)C(=O)N[C@H](C(=O)N[C@H](C(=O)N[C@H](C(=O)N[C@H](C(=O)N[C@H](C(=O)O)C(C)C)[C@@H](C)O)[C@@H](C)O)[C@@H](C)O)[C@@H](C)O [DSC54] (H-ILRKSTTTTV-OH)	> 100	> 100	–
CC[C@H](C)[C@H](NC(=O)[C@H](CCCNC(=N)N)NC(=O)[C@@H](NC(=O)[C@H](CO)NC(=O)[C@H](CC(C)C)NC(=O)[C@H](C)NC(=O)[C@@H](N)CO)C(C)C)C(=O)N[C@@H](CO)C(=O)N[C@@H](CC(N)=O)C(=O)N[C@H](C(=O)O)C(C)C [KCNJ10] (H-SALSVRISNV-OH)	> 100	> 100	–
CC[C@H](C)[C@H](NC(=O)[C@H](CCCNC(=N)N)NC(=O)[C@@H](NC(=O)[C@H](CCCNC(=N)N)NC(=O)[C@H](CO)NC(=O)[C@H](C)NC(=O)[C@@H](N)CC(N)=O)[C@@H](C)O)C(=O)N[C@H](C(=O)N[C@@H](Cc1ccccc1)C(=O)N[C@H](C(=O)O)C(C)C)[C@@H](C)O [MCM7] (H-NASRTRITFV-OH)	> 100	> 100	–
CC(C)C[C@H](NC(=O)[C@@H]1CCCN1C(=O)[C@@H](NC(=O)[C@H](CCC(=O)O)NC(=O)[C@H](CCCCN)NC(=O)[C@H](CO)NC(=O)[C@@H](NC(=O)[C@H](CCCNC(=N)N)NC(=O)[C@H](C)NC(=O)CN)C(C)C)[C@@H](C)O)C(=O)O [MAPK12] (H-GARVSKETPL-OH)	20.3	56.1	–
CSCC[C@H](N)C(=O)N[C@@H](CCC(=O)O)C(=O)N[C@@H](CCCNC(=N)N)C(=O)N[C@@H](CC(C)C)C(=O)N[C@@H](CCCNC(=N)N)C(=O)N[C@H](C(=O)N[C@@H](CCC(=O)O)C(=O)N[C@H](C(=O)N[C@@H](CC(=O)O)C(=O)N[C@H](C(=O)O)C(C)C)[C@@H](C)O)C(C)C [ARHGEF16] (H-MERLRVETDV-OH)	27.5	7.7	–

Reference: publication PMC3189207, “DomPep—A General Method for Predicting Modular Domain-Mediated Protein-Protein Interactions” (PLoS ONE, 2011)
